Patent publication US20210070748A1, “INHIBITORS OF BRUTONS TYROSINE KINASE” (Pharmacyclics LLC, priority 2015, published 2021)
Where two headings read alike, the source gives them in different places.

Key:
Assay type in all cases: biochemical
[1] = target: T1, BTK-WT (Homo sapiens, UniProt Q06187); assay: Btk in vitro inhibitory activity (one of Method A TR-FRET, Method B electrophoretic mobility shift, Method C radiometric filter binding)
T1 construct: purified from insect cells as a full-length construct containing an N-terminal 6X-His tag; His6 (N); made in house; host or cells: insect cells (baculovirus Sf21 in Method B)

[2] = target: T2, JAK3 (Homo sapiens, UniProt P52333); assay: Inhibition of a panel of kinases, in vitro HotSpot kinase assay: JAK3; conditions: Table 12, Formula C-I; 1 μM ATP; read-out: JAK3 (IC50)
T2 sequence (P52333 1-1124): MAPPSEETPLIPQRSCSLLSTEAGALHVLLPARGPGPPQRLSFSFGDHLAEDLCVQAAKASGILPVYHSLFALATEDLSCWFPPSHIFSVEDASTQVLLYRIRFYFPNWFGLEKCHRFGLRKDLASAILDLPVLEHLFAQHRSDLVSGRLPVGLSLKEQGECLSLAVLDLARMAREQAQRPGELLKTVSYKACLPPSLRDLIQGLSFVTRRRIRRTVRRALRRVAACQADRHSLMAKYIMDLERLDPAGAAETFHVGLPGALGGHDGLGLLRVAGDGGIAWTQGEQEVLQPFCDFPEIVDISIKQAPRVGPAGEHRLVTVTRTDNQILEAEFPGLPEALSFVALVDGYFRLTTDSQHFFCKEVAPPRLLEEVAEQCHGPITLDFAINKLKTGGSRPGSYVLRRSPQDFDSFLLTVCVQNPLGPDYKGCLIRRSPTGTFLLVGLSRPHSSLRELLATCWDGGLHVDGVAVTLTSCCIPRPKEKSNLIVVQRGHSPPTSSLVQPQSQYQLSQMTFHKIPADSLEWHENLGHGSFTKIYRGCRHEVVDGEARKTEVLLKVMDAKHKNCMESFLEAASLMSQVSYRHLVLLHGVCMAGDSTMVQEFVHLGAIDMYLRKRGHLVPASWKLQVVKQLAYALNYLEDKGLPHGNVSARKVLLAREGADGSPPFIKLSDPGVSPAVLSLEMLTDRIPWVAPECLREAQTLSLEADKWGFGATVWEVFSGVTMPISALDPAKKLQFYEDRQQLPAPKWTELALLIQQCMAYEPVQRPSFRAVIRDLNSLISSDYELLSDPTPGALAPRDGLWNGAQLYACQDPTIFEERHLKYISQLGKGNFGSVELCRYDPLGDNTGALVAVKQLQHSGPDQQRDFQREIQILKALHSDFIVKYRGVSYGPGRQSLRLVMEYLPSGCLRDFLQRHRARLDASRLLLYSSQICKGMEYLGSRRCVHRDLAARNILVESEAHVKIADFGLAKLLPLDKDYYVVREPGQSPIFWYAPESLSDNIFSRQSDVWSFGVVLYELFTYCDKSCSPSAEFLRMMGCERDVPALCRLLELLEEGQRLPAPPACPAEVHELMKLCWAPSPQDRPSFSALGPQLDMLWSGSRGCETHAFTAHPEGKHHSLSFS

[3] = target: LCK (Homo sapiens, UniProt P06239); assay: Inhibition of a panel of kinases, in vitro HotSpot kinase assay: LCK; conditions: Table 12, Formula C-I; 1 μM ATP; read-out: LCK (IC50)
[4] = target: T3, ITK (Homo sapiens, UniProt Q08881); assay: Inhibition of a panel of kinases, in vitro HotSpot kinase assay: ITK; conditions: E compounds, Table 17
T3 sequence (Q08881 1-620): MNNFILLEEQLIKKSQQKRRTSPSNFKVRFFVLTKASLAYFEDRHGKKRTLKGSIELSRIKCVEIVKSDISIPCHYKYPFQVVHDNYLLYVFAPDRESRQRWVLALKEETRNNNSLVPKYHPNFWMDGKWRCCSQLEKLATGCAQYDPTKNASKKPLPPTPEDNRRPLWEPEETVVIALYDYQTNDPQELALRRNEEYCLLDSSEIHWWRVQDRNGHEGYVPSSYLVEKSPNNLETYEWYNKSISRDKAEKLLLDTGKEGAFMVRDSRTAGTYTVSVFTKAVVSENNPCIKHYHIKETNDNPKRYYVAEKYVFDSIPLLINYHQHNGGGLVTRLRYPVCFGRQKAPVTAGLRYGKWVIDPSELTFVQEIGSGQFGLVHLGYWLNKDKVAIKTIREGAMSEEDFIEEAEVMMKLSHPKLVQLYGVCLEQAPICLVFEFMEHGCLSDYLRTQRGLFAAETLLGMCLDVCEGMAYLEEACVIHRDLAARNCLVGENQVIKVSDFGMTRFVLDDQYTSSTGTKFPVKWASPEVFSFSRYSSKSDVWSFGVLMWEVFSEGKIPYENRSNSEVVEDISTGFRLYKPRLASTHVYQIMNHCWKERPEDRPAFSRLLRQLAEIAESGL
Experimental: (§1) The degree of inhibition of a panel of kinases is determined using the in vitro HotSpot kinase assay (purified enzymes, ^33P-ATP, an appropriate substrate and 1 μM ATP).

[5] = target: T4, TEC (Homo sapiens, UniProt P42680); assay: Inhibition of a panel of kinases, in vitro HotSpot kinase assay: TEC; conditions: E compounds, Table 17
T4 sequence (P42680 1-631): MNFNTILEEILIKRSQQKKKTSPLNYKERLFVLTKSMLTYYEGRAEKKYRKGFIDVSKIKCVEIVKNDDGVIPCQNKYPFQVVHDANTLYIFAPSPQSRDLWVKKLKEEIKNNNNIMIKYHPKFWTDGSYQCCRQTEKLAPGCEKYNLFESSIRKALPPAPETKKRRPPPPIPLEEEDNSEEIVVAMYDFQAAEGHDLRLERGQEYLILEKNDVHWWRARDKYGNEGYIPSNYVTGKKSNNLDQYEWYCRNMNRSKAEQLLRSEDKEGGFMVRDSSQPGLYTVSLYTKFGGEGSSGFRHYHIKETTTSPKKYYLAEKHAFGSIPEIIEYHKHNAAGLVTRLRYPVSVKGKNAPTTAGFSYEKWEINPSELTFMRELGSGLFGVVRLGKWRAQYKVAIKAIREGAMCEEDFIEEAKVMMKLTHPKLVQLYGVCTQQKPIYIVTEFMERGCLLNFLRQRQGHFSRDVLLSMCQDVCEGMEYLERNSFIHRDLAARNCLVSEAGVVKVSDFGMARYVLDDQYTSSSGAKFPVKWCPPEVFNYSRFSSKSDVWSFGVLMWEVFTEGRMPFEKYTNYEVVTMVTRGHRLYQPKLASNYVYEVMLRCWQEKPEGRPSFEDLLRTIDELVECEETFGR
Experimental: as §1

[6] = Table 12, Formula C-I, read-out: BTK-WT (IC50)
[7] = E compounds, Table 17, read-out: IC50 BTK-WT

T1 sequence (Q06187 whole entry): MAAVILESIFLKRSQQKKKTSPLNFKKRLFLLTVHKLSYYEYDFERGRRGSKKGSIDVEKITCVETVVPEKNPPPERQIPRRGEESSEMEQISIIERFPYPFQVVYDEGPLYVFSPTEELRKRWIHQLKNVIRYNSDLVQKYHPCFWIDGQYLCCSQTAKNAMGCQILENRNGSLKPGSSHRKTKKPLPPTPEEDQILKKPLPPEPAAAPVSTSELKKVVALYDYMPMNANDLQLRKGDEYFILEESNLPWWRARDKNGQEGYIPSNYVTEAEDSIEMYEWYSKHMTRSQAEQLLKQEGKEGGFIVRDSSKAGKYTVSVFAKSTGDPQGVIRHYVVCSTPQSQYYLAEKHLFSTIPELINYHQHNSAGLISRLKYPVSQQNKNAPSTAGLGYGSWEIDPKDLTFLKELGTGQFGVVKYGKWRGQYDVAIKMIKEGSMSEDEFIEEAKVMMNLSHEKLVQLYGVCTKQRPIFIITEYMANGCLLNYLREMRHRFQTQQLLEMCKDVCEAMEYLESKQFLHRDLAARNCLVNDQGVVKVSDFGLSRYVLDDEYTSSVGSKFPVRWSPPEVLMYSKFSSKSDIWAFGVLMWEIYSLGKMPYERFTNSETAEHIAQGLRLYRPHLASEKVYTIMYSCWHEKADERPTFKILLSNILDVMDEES
Chain of LCK (P06239 whole entry): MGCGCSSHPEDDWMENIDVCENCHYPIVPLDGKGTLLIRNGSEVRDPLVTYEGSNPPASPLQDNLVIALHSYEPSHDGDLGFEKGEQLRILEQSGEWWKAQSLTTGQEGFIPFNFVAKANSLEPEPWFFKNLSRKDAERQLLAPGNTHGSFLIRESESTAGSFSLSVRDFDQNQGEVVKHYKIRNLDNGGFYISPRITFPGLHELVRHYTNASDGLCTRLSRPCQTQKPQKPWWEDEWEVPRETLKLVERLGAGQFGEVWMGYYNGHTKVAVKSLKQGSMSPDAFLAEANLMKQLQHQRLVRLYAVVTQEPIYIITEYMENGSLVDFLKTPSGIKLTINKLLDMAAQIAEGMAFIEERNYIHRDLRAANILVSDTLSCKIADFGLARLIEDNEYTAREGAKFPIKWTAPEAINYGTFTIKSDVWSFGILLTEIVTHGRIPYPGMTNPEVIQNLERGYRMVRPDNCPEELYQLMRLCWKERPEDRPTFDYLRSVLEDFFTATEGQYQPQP

SMILES | IC50 [1, 6] | IC50 [2] | IC50 [3] | IC50 [4] | IC50 [1, 7] | IC50 [5]
C=CC(=O)N1CC[C@H](Nc2nnc(C(N)=O)c(Nc3cccc(C(=O)Nc4ccc(C(C)C)c(C)c4)c3)n2)C1 [Example C-29, (S)-3-(1-acryloylpyrrolidin-3-ylamino)-5-(3-(4-isopropyl-3-methylphenyl-carbamoyl)phenyl-amino)-1,2,4-triazine-6-carboxamide] | ≤ 100 nM | < 100 nM | > 10000 nM | – | – | –
C=CC(=O)N1CC[C@@H](Nc2nnc(C(N)=O)c(Nc3cccc(C(=O)Nc4ccc(C(C)C)c(C)c4)c3)n2)C1 [Example C-30, (R)-3-(1-acryloylpyrrolidin-3-ylamino)-5-(3-(4-isopropyl-3-methylphenyl-carbamoyl)phenyl-amino)-1,2,4-triazine-6-carboxamide] | ≤ 100 nM | 100 to 1000 nM | > 10000 nM | – | – | –
C=CC(=O)N1CC[C@H](Nc2nnc(C(N)=O)c(Nc3ccc(C(C)C)cc3)n2)C1 [Example C-31, (S)-3-(1-acryloylpyrrolidin-3-ylamino)-5-(4-isopropylphenylamino)-1,2,4-triazine-6-carboxamide] | ≤ 100 nM | < 100 nM | 100 to 1000 nM | – | – | –
C=CC(=O)N1CC[C@@H](Nc2nnc(C(N)=O)c(Nc3ccc(C(C)C)cc3)n2)C1 [Example C-32, (R)-3-(1-acryloylpyrrolidin-3-ylamino)-5-(4-isopropylphenylamino)-1,2,4-triazine-6-carboxamide] | ≤ 100 nM | < 100 nM | 100 to 1000 nM | – | – | –
Cc1cc(Nc2nc(N(C)[C@@H]3CCN(C(=O)c4ccc(C(O)(C(F)(F)F)C(F)(F)F)cc4)C3)nnc2C(N)=O)sn1 [Example E-13, (R)-3-((1-(4-(1,1,1,3,3,3-hexafluoro-2-hydroxypropan-2-yl)benzoyl)pyrrolidin-3-yl)(methyl)amino)-5-(3-methylisothiazol-5-ylamino)-1,2,4-triazine-6-carboxamide] | – | – | – | 100 to 1000 nM | 10 to 100 nM | 100 to 1000 nM
C=CC(=O)N1CCC[C@@H](Nc2nnc(C(N)=O)c(Nc3cncc(F)c3)n2)C1 [Example E-53, (R)-3-(1-acryloylpiperidin-3-ylamino)-5-(5-fluoropyridin-3-ylamino)-1,2,4-triazine-6-carboxamide] | – | – | – | 100 to 1000 nM | ≤ 10 nM | ≤ 10 nM
C=CC(=O)N1CCC[C@@H](Nc2nnc(C(N)=O)c(Nc3ccc(CN(C(=O)OCc4ccccc4)[C@@H](C)C(C)(C)C)cc3)n2)C1 [Example E-56, benzyl 4-(3-((R)-1-acryloylpiperidin-3-ylamino)-6-carbamoyl-1,2,4-triazin-5-ylamino)benzyl((S)-3,3-dimethylbutan-2-yl)carbamate] | – | – | – | 10 to 100 nM | ≤ 10 nM | ≤ 10 nM

Second part, the compound after the results:

IC50 [1, 6] | IC50 [2] | IC50 [3] | IC50 [4] | IC50 [1, 7] | IC50 [5] | SMILES
– | – | – | ≤ 10 nM | ≤ 10 nM | ≤ 10 nM | C=CC(=O)N1CC[C@@H](N(C)c2nnc(C(N)=O)c(Nc3ccc(C(O)(C(F)(F)F)C(F)(F)F)cc3)n2)C1 [Example E-16, (R)-3-((1-acryloylpyrrolidin-3-yl)(methyl)amino)-5-(4-(1,1,1,3,3,3-hexafluoro-2-hydroxypropan-2-yl)phenylamino)-1,2,4-triazine-6-carboxamide]
– | – | – | 10 to 100 nM | ≤ 10 nM | ≤ 10 nM | C=CC(=O)N1CCC[C@@H](Nc2nnc(C(N)=O)c(Nc3ccc(C(C)C)c(C)c3)n2)C1 [Example E-42, (R)-3-(1-acryloylpiperidin-3-ylamino)-5-(4-isopropyl-3-methylphenylamino)-1,2,4-triazine-6-carboxamide]
– | – | – | 10 to 100 nM | ≤ 10 nM | ≤ 10 nM | C=CC(=O)N1CCC[C@@H](Nc2nnc(C(N)=O)c(Nc3ccc(C)cc3)n2)C1 [Example E-43, (R)-3-(1-acryloylpiperidin-3-ylamino)-5-(p-tolylamino)-1,2,4-triazine-6-carboxamide]
– | – | – | ≤ 10 nM | ≤ 10 nM | ≤ 10 nM | C=CC(=O)N1CCC[C@@H](Nc2nnc(C(N)=O)c(Nc3ccc(C4CCN(C5CCCC5)CC4)cc3)n2)C1 [Example E-48, (R)-3-(1-acryloylpiperidin-3-ylamino)-5-(4-(1-cyclopentylpiperidin-4-yl)phenylamino)-1,2,4-triazine-6-carboxamide]
– | – | – | ≤ 10 nM | ≤ 10 nM | ≤ 10 nM | C=CC(=O)N1CCC[C@@H](Nc2nnc(C(N)=O)c(Nc3ccc(C(C)(C)C#N)cc3)n2)C1 [Example E-49, (R)-3-(1-acryloylpiperidin-3-ylamino)-5-(4-(2-cyanopropan-2-yl)phenylamino)-1,2,4-triazine-6-carboxamide]
– | – | – | 10 to 100 nM | ≤ 10 nM | ≤ 10 nM | C=CC(=O)N1CCC[C@@H](Nc2nnc(C(N)=O)c(Nc3ccc(I)cc3)n2)C1 [Example E-50, (R)-3-(1-acryloylpiperidin-3-ylamino)-5-(4-iodophenylamino)-1,2,4-triazine-6-carboxamide]
– | – | – | ≤ 10 nM | ≤ 10 nM | ≤ 10 nM | C=CC(=O)N1CCC[C@@H](Nc2nnc(C(N)=O)c(Nc3ccc4ncsc4c3)n2)C1 [Example E-51, (R)-3-(1-acryloylpiperidin-3-ylamino)-5-(benzo[d]thiazol-6-ylamino)-1,2,4-triazine-6-carboxamide]
– | – | – | ≤ 10 nM | ≤ 10 nM | ≤ 10 nM | C=CC(=O)N1CCC[C@@H](Nc2nnc(C(N)=O)c(Nc3ccc(Cn4cncn4)cc3)n2)C1 [Example E-52, (R)-5-(4-((1H-1,2,4-triazol-1-yl)methyl)phenyl-amino)-3-(1-acryloylpiperidin-3-ylamino)-1,2,4-triazine-6-carboxamide]
– | – | – | 10 to 100 nM | ≤ 10 nM | ≤ 10 nM | C=CC(=O)N1CCC[C@@H](Nc2nnc(C(N)=O)c(Nc3cnc4ccccc4c3)n2)C1 [Example E-54, (R)-3-(1-acryloylpiperidin-3-ylamino)-5-(quinolin-3-ylamino)-1,2,4-triazine-6-carboxamide]
